# Results published in ChEMBL document CHEMBL5247669, “Synthesis, modeling, and biological evaluation of anti-tubulin indole-substituted furanones” (Bioorg Med Chem Lett, 2023).
# The source made the active and inactive calls. No cut-off for these calls is given here.
# Assays:
# U-937 = experiment: Anticancer activity against human U-937 cells assessed as reduction in cell viability by MTT assay; format: functional, cell-based
# MCF7 = experiment: Growth inhibition of human MCF7 cells by MTT assay; format: functional
# MDA-MB-231 = experiment: Growth inhibition of human MDA-MB-231 cells by MTT assay; format: functional
# Hs-578T = experiment: Growth inhibition of human Hs-578T cells by MTT assay; format: functional
# BT-549 = experiment: Growth inhibition of human BT-549 cells by MTT assay; format: functional
# T47D = experiment: Growth inhibition of human T47D cells by MTT assay; format: functional
# MDA-MB-468 = experiment: Growth inhibition of human MDA-MB-468 cells by MTT assay; format: functional
# COLO 205 = experiment: Growth inhibition of human COLO 205 cells by MTT assay; format: functional
# HCC 2998 = experiment: Growth inhibition of human HCC 2998 cells by MTT assay; format: functional
# HCT-116 = experiment: Growth inhibition of human HCT-116 cells by MTT assay; format: functional
# HCT-15 = experiment: Growth inhibition of human HCT-15 cells by MTT assay; format: functional
# HT-29 = experiment: Growth inhibition of human HT-29 cells by MTT assay; format: functional
# KM12 = experiment: Growth inhibition of human KM12 cells by MTT assay; format: functional
# SW-620 = experiment: Growth inhibition of human SW-620 cells by MTT assay; format: functional
# SF-268 = experiment: Growth inhibition of human SF-268 cells by MTT assay; format: functional
# SF-295 = experiment: Growth inhibition of human SF-295 cells by MTT assay; format: functional
# SF-539 = experiment: Growth inhibition of human SF-539 cells by MTT assay; format: functional
# SNB-19 = experiment: Growth inhibition of human SNB-19 cells by MTT assay; format: functional
# SNB-75 = experiment: Growth inhibition of human SNB-75 cells by MTT assay; format: functional
# U-251 = experiment: Growth inhibition of human U-251 cells by MTT assay; format: functional
# HL-60 = experiment: Growth inhibition of human HL-60 cells by MTT assay; format: functional
# K562 = experiment: Growth inhibition of human K562 cells by MTT assay; format: functional
# MOLT-4 = experiment: Growth inhibition of human MOLT-4 cells by MTT assay; format: functional
# SR = experiment: Growth inhibition of human SR cells by MTT assay; format: functional
# CCRF-CEM = experiment: Growth inhibition of human CCRF-CEM cells by MTT assay; format: functional
# RPMI-8226 = experiment: Growth inhibition of human RPMI-8226 cells by MTT assay; format: functional
# LOX IMVI = experiment: Growth inhibition of human LOX IMVI cells by MTT assay; format: functional
# Malme-3M = experiment: Growth inhibition of human Malme-3M cells by MTT assay; format: functional
# M14 = experiment: Growth inhibition of human M14 cells by MTT assay; format: functional
# MDA-MB-435 = experiment: Growth inhibition of human MDA-MB-435 cells by MTT assay; format: functional
# SK-MEL-2 = experiment: Growth inhibition of human SK-MEL-2 cells by MTT assay; format: functional
# SK-MEL-28 = experiment: Growth inhibition of human SK-MEL-28 cells by MTT assay; format: functional
# SK-MEL-5 = experiment: Growth inhibition of human SK-MEL-5 cells by MTT assay; format: functional
# UACC-257 = experiment: Growth inhibition of human UACC-257 cells by MTT assay; format: functional
# UACC-62 = experiment: Growth inhibition of human UACC-62 cells by MTT assay; format: functional
# A549 = experiment: Growth inhibition of human A549 cells by MTT assay; format: functional
# EKVX = experiment: Growth inhibition of human EKVX cells by MTT assay; format: functional
# HOP-62 = experiment: Growth inhibition of human HOP-62 cells by MTT assay; format: functional
# HOP-92 = experiment: Growth inhibition of human HOP-92 cells by MTT assay; format: functional
# NCI-H226 = experiment: Growth inhibition of human NCI-H226 cells by MTT assay; format: functional
# NCI-H23 = experiment: Growth inhibition of human NCI-H23 cells by MTT assay; format: functional
# NCI-H322M = experiment: Growth inhibition of human NCI-H322M cells by MTT assay; format: functional
# NCI-H460 = experiment: Growth inhibition of human NCI-H460 cells by MTT assay; format: functional
# NCI-H522 = experiment: Growth inhibition of human NCI-H522 cells by MTT assay; format: functional
# IGROV-1 = experiment: Growth inhibition of human IGROV-1 cells by MTT assay; format: functional, cell-based
# OVCAR-3 = experiment: Growth inhibition of human OVCAR-3 cells by MTT assay; format: functional
# OVCAR-4 = experiment: Growth inhibition of human OVCAR-4 cells by MTT assay; format: functional
# OVCAR-5 = experiment: Growth inhibition of human OVCAR-5 cells by MTT assay; format: functional
# OVCAR-8 = experiment: Growth inhibition of human OVCAR-8 cells by MTT assay; format: functional
# NCI/ADR-RES = experiment: Growth inhibition of human NCI/ADR-RES cells by MTT assay; format: functional
# SK-OV-3 = experiment: Growth inhibition of human SK-OV-3 cells by MTT assay; format: functional
# DU-145 = experiment: Growth inhibition of human DU-145 cells by MTT assay; format: functional
# PC-3 = experiment: Growth inhibition of human PC-3 cells by MTT assay; format: functional
# 786-0 = experiment: Growth inhibition of human 786-0 cells by MTT assay; format: functional
# A498 = experiment: Growth inhibition of human A498 cells by MTT assay; format: functional
# ACHN = experiment: Growth inhibition of human ACHN cells by MTT assay; format: functional
# CAKI-1 = experiment: Growth inhibition of human CAKI-1 cells by MTT assay; format: functional
# RXF 393 = experiment: Growth inhibition of human RXF 393 cells by MTT assay; format: functional
# SN12C = experiment: Growth inhibition of human SN12C cells by MTT assay; format: functional
# TK-10 = experiment: Growth inhibition of human TK-10 cells by MTT assay; format: functional
# UO-31 = experiment: Growth inhibition of human UO-31 cells by MTT assay; format: functional
# Tubulin (Homo sapiens) = Tubulin (Homo sapiens) (UniProt P68371+Q9H4B7+P0DPH7+P68366+Q13509+Q71U36+P04350+Q3ZCM7+P07437+P68363+Q9BQE3+Q6PEY2+Q13885+Q9BVA1+Q9BUF5); experiment: Inhibition of tubulin polymerization (unknown origin) at 10 uM; format: protein-complex assay
structure (smiles),measurement,setting,value
Cc1ccc(C2=C(c3cn(C)c4ccccc34)COC2=O)cc1,EC50,U-937,> 10 µM
COc1ccc(C2=C(c3cn(C)c4ccccc34)COC2=O)cc1OC,EC50,U-937,> 10 µM
COc1ccc(OC)c(C2=C(c3cn(C)c4ccccc34)COC2=O)c1,EC50,U-937,3.2 µM
Cc1cccc(C2=C(c3cn(C)c4ccccc34)COC2=O)c1,EC50,U-937,> 10 µM
COc1cccc(C2=C(c3cn(C)c4ccccc34)COC2=O)c1,EC50,U-937,> 10 µM
COc1ccc(C2=C(c3cn(C)c4ccccc34)COC2=O)cc1,EC50,U-937,> 10 µM
Cn1cc(C2=C(c3ccccc3)C(=O)OC2)c2ccccc21,EC50,U-937,> 10 µM
COc1cc(C2=C(c3cn(C)c4ccccc34)COC2=O)cc(OC)c1OC,EC50,U-937,0.6 µM
same,GI50,MCF7,0.028 µM
same,GI50,MDA-MB-231,0.339 µM
same,GI50,Hs-578T,0.158 µM
same,GI50,BT-549,0.062 µM
same,GI50,T47D,0.06 µM
same,GI50,MDA-MB-468,0.032 µM
same,GI50,COLO 205,0.065 µM
same,GI50,HCC 2998,0.219 µM
same,GI50,HCT-116,0.04 µM
same,GI50,HCT-15,0.043 µM
same,GI50,HT-29,0.038 µM
same,GI50,KM12,0.065 µM
same,GI50,SW-620,0.045 µM
same,GI50,SF-268,0.813 µM
same,GI50,SF-295,0.04 µM
same,GI50,SF-539,0.105 µM
same,GI50,SNB-19,0.158 µM
same,GI50,SNB-75,0.044 µM
same,GI50,U-251,0.072 µM
same,GI50,HL-60,0.043 µM
same,GI50,K562,0.037 µM
same,GI50,MOLT-4,0.055 µM
same,GI50,SR,0.022 µM
same,GI50,CCRF-CEM,0.059 µM
same,GI50,RPMI-8226,0.11 µM
same,GI50,LOX IMVI,0.066 µM
same,GI50,Malme-3M,0.195 µM
same,GI50,M14,0.037 µM
same,GI50,MDA-MB-435,0.025 µM
same,GI50,SK-MEL-2,0.229 µM
same,GI50,SK-MEL-28,0.427 µM
same,GI50,SK-MEL-5,0.078 µM
same,GI50,UACC-257,1.62 µM
same,GI50,UACC-62,0.054 µM
same,GI50,A549,0.1 µM
same,GI50,EKVX,0.151 µM
same,GI50,HOP-62,0.123 µM
same,GI50,HOP-92,0.251 µM
same,GI50,NCI-H226,0.692 µM
same,GI50,NCI-H23,0.234 µM
same,GI50,NCI-H322M,0.407 µM
same,GI50,NCI-H460,0.054 µM
same,GI50,NCI-H522,0.049 µM
same,IC50,IGROV-1,0.076 µM
same,GI50,OVCAR-3,0.036 µM
same,GI50,OVCAR-4,1.26 µM
same,GI50,OVCAR-5,0.479 µM
same,GI50,OVCAR-8,0.339 µM
same,GI50,NCI/ADR-RES,0.047 µM
same,GI50,SK-OV-3,0.269 µM
same,GI50,DU-145,0.209 µM
same,GI50,PC-3,0.102 µM
same,GI50,786-0,0.316 µM
same,GI50,A498,0.017 µM
same,GI50,ACHN,0.537 µM
same,GI50,CAKI-1,0.052 µM
same,GI50,RXF 393,0.132 µM
same,GI50,SN12C,0.282 µM
same,GI50,TK-10,0.933 µM
same,GI50,UO-31,0.186 µM
same,inhibition,Tubulin (Homo sapiens),Active
COc1ccccc1C1=C(c2cn(C)c3ccccc23)COC1=O,EC50,U-937,> 10 µM
